Results from patent publication US5229371A, “Chemical modification of elsamicin A at the 3' and/or 4' OH groups” (Bristol-Myers Squibb Company, priority 1992, dated 1993).
Values after ≈ are worked out from the molar mass of the structure shown. Where two headings read alike, the source gives them in different places.

What was measured:
P388 leukemia = test: In vivo antitumor activity against lymphocytic leukemia P388 in mice (Q1Dx3, ip); parameters: species or system mouse (female CDF1); conditions: for T/C % of MST: Q1D × 3, ip; for minimum effective dose (MED) compared with elsamicin A: T/C ≥125 significant
Method: (§1) In vivo antitumor activity of the above five derivatives was tested in the lymphocytic leukemia P388 and melanoma B16 systems. Female CDF1 (for P388) and male BDF1 (for B16) mice were inoculated by ip injection at 10^6 P388 cells and 0.5 ml of a 10% B16 brei per mouse, respectively (day 0).
(§2) The percent increase of median survival time (MST) of treated animals over that of untreated control animals was determined and reported as T/C %.

B16 melanoma = test: In vivo antitumor activity against B16 melanoma in mice (Q4Dx3, ip); parameters: species or system mouse (male BDF1); conditions: for T/C % of MST / No. of survivors/tested on day 50: Q4D × 3, ip
Method: as §1, §2

B16-F10 melanoma cells = test: cells; conditions: Mus musculus, B16-F10, 72 h, read-out: Cytotoxicity IC50
Method: For in vitro cytotoxicity experiment, murine melanoma B16-F10 cells were grown and maintained in Eagle's minimum essential medium (Nissui), which contains kanamycin (60 μg/ml), supplemented with heat-inactivated fetal calf serum (10%) and non-essential amino acids (0.6%) at 37° C. under a humidified atmosphere in a 5% CO2 incubator. Exponentially growing B16-F10 cells were harvested, counted and suspended in the culture medium at the concentration of 2.0×10^4 cells/ml. The cell suspension (180 μl) was planted into wells of a 96-well microtiter plate and incubated for 24 hours. Test compound (20 μl) were added to the wells and the plates were further incubated for 72 hours. The cytotoxic activity was colorimetrically determined at 540 nm after staining viable cells with neutral red solution.

[1] = test system: aerobic gram-positive bacteria; conditions: cited from earlier work
anaerobic bacteria = conditions: cited from earlier work
leukemia P388 [2] = conditions: P388, in vitro; cited from earlier work
lymphoid leukemia L1210 [3] = conditions: L1210, in vitro; cited from earlier work
melanotic melanoma B16 [4] = conditions: B16, in vitro; cited from earlier work
leukemia P388 [5] = conditions: P388, in vivo; cited from earlier work
lymphoid leukemia L1210 [6] = conditions: L1210, in vivo; cited from earlier work
melanotic melanoma B16 [7] = conditions: B16, in vivo; cited from earlier work

| Compound | T/C % of MST (P388 leukemia; P388, 0.1 mg/kg/day) [%] | T/C % of MST (P388 leukemia; P388, 0.3 mg/kg/day) [%] | T/C % of MST (P388 leukemia; P388, 1 mg/kg/day) [%] | T/C % of MST (P388 leukemia; P388, 3 mg/kg/day) [%] | T/C % of MST (P388 leukemia; P388, 10 mg/kg/day) [%] | T/C % of MST (P388 leukemia; P388, 20 mg/kg/day) | minimum effective dose (MED) compared with elsamicin A (P388 leukemia; P388 system) | T/C % of MST (B16 melanoma; B16, 0.1 mg/kg/day) [%] | T/C % of MST (B16 melanoma; B16, 0.3 mg/kg/day) [%] | T/C % of MST (B16 melanoma; B16, 1 mg/kg/day) [%] | T/C % of MST (B16 melanoma; B16, 3 mg/kg/day) [%] | No. of survivors/tested on day 50 (B16 melanoma; B16, 10 mg/kg/day) | T/C % of MST (B16 melanoma; B16, 10 mg/kg/day) [%] | IC50 (B16-F10 melanoma cells) [µg/mL] | No. of survivors/tested on day 50 (B16 melanoma; B16, 3 mg/kg/day) | other results |
| --- | --- | --- | --- | --- | --- | --- | --- | --- | --- | --- | --- | --- | --- | --- | --- | --- |
| COC1OC2C(C)OC(Oc3cccc4c(O)c5c(=O)oc6ccc(C)c7c(=O)oc(c34)c5c67)C(OC3OC(C)C(O)C(OC)C3N)C2(C)O1 (stereo not shown) [Compound 6d, 3',4'-O-Methoxymethylideneelsamicin A] | 124 | 137 | 167 | 167 | 224 | Tox | as active as the parent compounds | 120 | 137 | 167 | 283 | 3/4 | ≥ 333 | 0.05 (≈ 0.0719 µM) |  | response / therapeutic activity (in words) (B16 melanoma; B16 system): extremely potent therapeutic activity; T/C % values compared with elsamicin A (1) (B16 melanoma; B16 system, 3 and 10 mg/kg/day): higher T/C % values |
| COC1C(N)C(OC2C(Oc3cccc4c(O)c5c(=O)oc6ccc(C)c7c(=O)oc(c34)c5c67)OC(C)C3OC4(CCCCC4)OC32C)OC(C)C1O (stereo not shown) [Compound 6b, 3',4'-O-Cyclohexylideneelsamicin A] |  | 120 | 140 | 175 | 165 |  |  |  | 111 | 132 | 175 |  | 200 | 0.04 (≈ 0.0545 µM) |  |  |
| COC1C(N)C(OC2C(Oc3cccc4c(O)c5c(=O)oc6ccc(C)c7c(=O)oc(c34)c5c67)OC(C)C(O)C2(C)O)OC(C)C1O (stereo not shown) [Compound 1, Elsamicin A] | 123 | 140 | 155 | 180 | 190 | Tox |  | 116 | 139 | 179 | ≥ 216 | 2/12 | ≥ 298 | 0.03 (≈ 0.0459 µM) | 2/12 | antibacterial activity [1]: exhibits antibacterial activity; antibacterial activity (anaerobic bacteria): exhibits antibacterial activity; activity against murine tumor cells (leukemia P388 [2]): exerts activity; activity against murine tumor cells (lymphoid leukemia L1210 [3]): exerts activity; activity against murine tumor cells (melanotic melanoma B16 [4]): exerts activity; activity against murine tumor cells (leukemia P388 [5]): exerts activity; activity against murine tumor cells (lymphoid leukemia L1210 [6]): exerts activity; activity against murine tumor cells (melanotic melanoma B16 [7]): exerts activity |
| COC1C(N)C(OC2C(Oc3cccc4c(O)c5c(=O)oc6ccc(C)c7c(=O)oc(c34)c5c67)OC(C)C3OC(C)(C)OC32C)OC(C)C1O (stereo not shown) [Compound 6a, 3',4'-O-Isopropylideneelsamicin A] | 120 | 140 | 170 | 210 |  |  | as active as the parent compounds | 105 | 116 | 166 | 192 |  | 82 | 0.025 (≈ 0.036 µM) |  |  |
| COC1C(N)C(OC2C(Oc3cccc4c(O)c5c(=O)oc6ccc(C)c7c(=O)oc(c34)c5c67)OC(C)C3OC(c4ccccc4)OC32C)OC(C)C1O (stereo not shown) [Compound 6c, 3',4'-O-Benzylideneelsamicin A] | 110 | 130 | 150 | 165 | 180 | Tox | as active as the parent compounds | 121 | 114 | 136 | 179 |  | 186 | 0.07 (≈ 0.0944 µM) |  |  |
| COC1C(N)C(OC2C(Oc3cccc4c(O)c5c(=O)oc6ccc(C)c7c(=O)oc(c34)c5c67)OC(C)C(OC3CCCCO3)C2(C)O)OC(C)C1O (stereo not shown) [Compound 8, 4'-O-Tetrahydropyranylelsamicin A] | 130 | 145 | 168 | 190 | 225 | Tox | three times more potent | 133 | 159 | 248 | ≥ 281 | 2/4 | ≥ 330 | 0.04 (≈ 0.0542 µM) | 1/4 | T/C % values (in words) (P388 leukemia; P388 system): high T/C % values; No. of survivors/tested on day 50 (B16 melanoma; B16, 20 mg/kg/day): 3/4; T/C % of MST (B16 melanoma; B16, 20 mg/kg/day): ≥ 370%; MED and T/C % values compared with elsamicin A (1) (B16 melanoma; B16 system): better than elsamicin A (1); survivors on day 50 (in words) (B16 melanoma; B16 system, 3~20 mg/kg/day): Some survivors |
